One data set concerns RD cells. Description: Cytotoxicity of medicines by CCK-8. Format: cell-based, human. The following applies: 48 h.
Data set [1] relates to EV71. As to conditions: Vero cells pretreated with 200 μM before infection; cited from earlier work.
For data set [2], the system named is EV71. Description: Inhibition of cell death caused by EV71 infection. Format: cell-based, Enterovirus 71. The following applies: Enterovirus A, EV71, RD, 48 h.
The nature of data set [3]: Cytotoxicity of medicines by CCK-8. Format: cell-based, human. The following applies: human, RD cells.

In brackets after ≈: the same amount, converted by molar mass.

In the case of `C[C@@H]1O[C@@H](OC[C@H]2O[C@@H](Oc3c(-c4ccc(O)c(O)c4)oc4cc(O)cc(O)c4c3=O)[C@H](O)[C@@H](O)[C@@H]2O)[C@H](O)[C@H](O)[C@H]1O` [Rutin, rutin], the MNTC in the data set with RD cells came to 200.00 µg/mL. Moreover, in the data set on EV71 [1], the “EV71-induced CPE and viral replication” value is recorded as “significantly suppress”.

On to `NC(=O)c1ncn([C@@H]2O[C@H](CO)[C@@H](O)[C@H]2O)n1` [ribavirin, Ribavirin, reference compound], for which, in the data set with EV71 [2], half-maximal inhibition (IC50) was put at 290 µg/mL (≈ 1190 µM). Also, in the data set on RD cells (cell survival rate ≥ 90%), the “MNTC (maximum non-toxic concentration)” value was determined as 1 mg/mL. In addition, the midpoint of cytotoxicity in data set [3], the CC50 at 48 h, lay at 2430 µg/mL (≈ 9950 µM). As for `O=C(/C=C/c1ccc(O)c(O)c1)O[C@H](Cc1ccc(O)c(O)c1)C(=O)O` [Rosmarinic acid, rosmarinic acid], the IC50 with EV71 [2] is 11.9 µg/mL (≈ 33 µM). Also, the MNTC in the data set with RD cells amounted to 50.00 µg/mL.

In the case of `O=C(/C=C/c1ccc(O)c(O)c1)O[C@H]1[C@H](O)C[C@](O)(C(=O)O)C[C@H]1O` [Cryptochlorogenic acid, cryptochlorogenic acid], the MNTC in the data set with RD cells was found to be 100.00 µg/mL. Still for that read-out and setting: the figure for `O=c1c(O[C@@H]2O[C@H](CO)[C@H](O)[C@H](O)[C@H]2O)c(-c2ccc(O)c(O)c2)oc2cc(O)cc(O)c12` [Hyperoside] is 200.00 µg/mL; for `O=c1c(O[C@@H]2O[C@H](CO)[C@@H](O)[C@H](O)[C@H]2O)c(-c2ccc(O)cc2)oc2cc(O)cc(O)c12` [Astragalin] it is 200.00 µg/mL. Same read-out and setting: to `O=C(O)c1cc(O)c(O)c(O)c1` [Gallic acid, gallic acid] belongs 6.25 µg/mL; to `O=C(O)/C=C/c1ccc(O)c(O)c1` [Caffeic acid], 50.00 µg/mL.

Usually IC50 stands for the concentration at which inhibition is half-maximal. Lower therefore signals greater potency in that assay. The term CC50 denotes the concentration at which the toxic effect on the cells reaches its halfway point. A low value points to harm at low concentration.

Source of the values: publication PMC10916518 (Drug Design, Development and Therapy, 2024).
